Target: T1, MGL activity in HeLa cell homogenate (Homo sapiens, UniProt Q99685)
T1 construct: HeLa cells were homogenated with a Polytron; endogenous in cells; host or cells: HeLa cell homogenate
T1 sequence (Q99685 1-303): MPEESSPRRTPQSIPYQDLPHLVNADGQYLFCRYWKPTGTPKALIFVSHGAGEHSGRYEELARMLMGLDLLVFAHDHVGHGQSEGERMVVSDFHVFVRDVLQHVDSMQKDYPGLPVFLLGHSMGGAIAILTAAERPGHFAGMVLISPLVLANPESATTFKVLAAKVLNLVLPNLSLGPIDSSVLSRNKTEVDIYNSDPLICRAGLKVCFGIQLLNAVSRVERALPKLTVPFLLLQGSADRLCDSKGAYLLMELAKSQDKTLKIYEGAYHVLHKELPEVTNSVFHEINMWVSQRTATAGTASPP
Test: 2-AG Accumulation Assay in HeLa cell homogenate
Format: biochemical
Settings: accumulated 2-AG relative to MAFP 2-AG x100; for Example 4 % MAFP @ 10 μM: compound 10 μM; for Example 4 % MAFP @ 1 μM: compound 1 μM

Row | SMILES | Example 4 % MAFP @ 10 μM [% MAFP] | Example 4 % MAFP @ 1 μM [% MAFP]
1 | CC(C)Cn1c(COc2ccccc2)cc2cc(C(=O)N3CC(N4CCN(c5ccccn5)CC4)C3)ccc21 [Compound 9, (1-Isobutyl-2-phenoxymethyl-1H-indol-5-yl)-[3-(4-pyridin-2-yl-piperazin-1-yl)-azetidin-1-yl]-methanone] | 67.8 | 
2 | CCCc1cc2cc(C(=O)N3CC(N4CCN(c5ccccn5)CC4)C3)ccc2n1CC1CCCCC1 [Compound 28, (1-Cyclohexylmethyl-2-propyl-1H-indol-5-yl)-[3-(4-pyridin-2-yl-piperazin-1-yl)-azetidin-1-yl]-methanone] | 77.0 | 
3 | Cn1c(CC2CCCC2)cc2cc(C(=O)N3CC(N4CCN(c5ccccn5)CC4)C3)ccc21 [Compound 12, (2-Cyclopentylmethyl-1-methyl-1H-indol-5-yl)-[3-(4-pyridin-2-yl-piperazin-1-yl)-azetidin-1-yl]-methanone] | 142.0 | 
4 | O=C(c1ccc2c(c1)cc(COc1ccccc1)n2CC1CCCCC1)N1CC(N2CCN(c3ccccn3)CC2)C1 [Compound 11, (1-Cyclohexylmethyl-2-phenoxymethyl-1H-indol-5-yl)-[3-(4-pyridin-2-yl-piperazin-1-yl)-azetidin-1-yl]-methanone] | 160.1 | 
5 | COc1ccccc1N1CCN(C2CN(C(=O)c3ccc4c(c3)cc(Cc3ccccc3)n4CC(C)C)C2)CC1 [Compound 21, (2-Benzyl-1-isobutyl-1H-indol-5-yl)-{3-[4-(2-methoxy-phenyl)-piperazin-1-yl]-azetidin-1-yl}-methanone] | 29.2 | 
6 | COc1ccccc1N1CCN(C2CN(C(=O)c3ccc4c(c3)cc(COc3ccccc3)n4CC(C)C)C2)CC1 [Compound 17, (1-Isobutyl-2-phenoxymethyl-1H-indol-5-yl)-{3-[4-(2-methoxy-phenyl)-piperazin-1-yl]-azetidin-1-yl}-methanone] | 25.9 | 
7 | O=C(c1ccc2[nH]c(CC3CCCCC3)cc2c1)N1CC(N2CCN(c3ccccn3)CC2)C1 [Compound 14, (2-Cyclohexylmethyl-1H-indol-5-yl)-[3-(4-pyridin-2-yl-piperazin-1-yl)-azetidin-1-yl]-methanone] | 53.7 | 
8 | O=C(c1ccc2c(c1)cc(Cc1ccccc1)n2CC1CCCCC1)N1CC(N2CCN(c3ccccn3)CC2)C1 [Compound 18, (2-Benzyl-1-cyclohexylmethyl-1H-indol-5-yl)-[3-(4-pyridin-2-yl-piperazin-1-yl)-azetidin-1-yl]-methanone] | 134.6 | 
9 | COc1ccccc1N1CCN(C2CN(C(=O)c3ccc4c(c3)cc(-c3ccccc3)n4CC(C)(C)C)C2)CC1 [Compound 24, [1-(2,2-Dimethyl-propyl)-2-phenyl-1H-indol-5-yl]-{3-[4-(2-methoxy-phenyl)-piperazin-1-yl]-azetidin-1-yl}-methanone] | 58.8 | 
10 | O=C(c1cccc2nc(-c3ccc(F)cc3)oc12)N1CC(N2CCN(c3ccccn3)CC2)C1 [Compound 6, [2-(4-Fluoro-phenyl)-benzooxazol-7-yl]-[3-(4-pyridin-2-yl-piperazin-1-yl)-azetidin-1-yl]-methanone] | 68.8 | 30.6
11 | CC(C)(C)Cn1c(-c2ccccc2)cc2cc(C(=O)N3CC(N4CCN(c5ccccn5)CC4)C3)ccc21 [Compound 10, [1-(2,2-Dimethyl-propyl)-2-phenyl-1H-indol-5-yl]-[3-(4-pyridin-2-yl-piperazin-1-yl)-azetidin-1-yl]-methanone] | 160.1 | 
12 | COc1cccc(-c2nc3cc(C(=O)N4CC(N5CCN(c6ccccn6)CC5)C4)ccc3o2)c1 [Compound 20, [2-(3-Methoxy-phenyl)-benzooxazol-5-yl]-[3-(4-pyridin-2-yl-piperazin-1-yl)-azetidin-1-yl]-methanone] | 86.9 | 
13 | CC(C)(C)c1nc2ccc(C(=O)N3CC(N4CCN(c5ccccn5)CC4)C3)cc2o1 [Compound 19, (2-tert-Butyl-benzooxazol-6-yl)-[3-(4-pyridin-2-yl-piperazin-1-yl)-azetidin-1-yl]-methanone] | 47.3 | 19.9
14 | CC(C)Cc1cc2cc(C(=O)N3CC(N4CCN(c5ccccn5)CC4)C3)ccc2n1CC(C)C [Compound 8, (1,2-Diisobutyl-1H-indol-5-yl)-[3-(4-pyridin-2-yl-piperazin-1-yl)-azetidin-1-yl]-methanone] | 72.9 | 
15 | COc1ccccc1N1CCN(C2CN(C(=O)c3ccc4c(c3)cc(Cc3ccccc3)n4CC3CCCCC3)C2)CC1 [Compound 23, (2-Benzyl-1-cyclohexylmethyl-1H-indol-5-yl)-{3-[4-(2-methoxy-phenyl)-piperazin-1-yl]-azetidin-1-yl}-methanone] | 84.5 | 
16 | COc1ccccc1Cc1nc2cc(C(=O)N3CC(N4CCN(c5ccccn5)CC4)C3)ccc2o1 [Compound 15, [2-(2-Methoxy-benzyl)-benzooxazol-5-yl]-[3-(4-pyridin-2-yl-piperazin-1-yl)-azetidin-1-yl]-methanone] | 57.6 | 
17 | CC(C)(C)Cn1c(C(C)(C)C)cc2cc(C(=O)N3CC(N4CCN(c5ccccn5)CC4)C3)ccc21 [Compound 26, [2-tert-Butyl-1-(2,2-dimethyl-propyl)-1H-indol-5-yl]-[3-(4-pyridin-2-yl-piperazin-1-yl)-azetidin-1-yl]-methanone] | 37.0 | 
18 | CC(C)(C)Cn1c(-c2ccccc2)cc2cc(C(=O)N3CC(N4CCN(c5ccc(F)cc5)CC4)C3)ccc21 [Compound 25, [1-(2,2-Dimethyl-propyl)-2-phenyl-1H-indol-5-yl]-{3-[4-(4-fluoro-phenyl)-piperazin-1-yl]-azetidin-1-yl}-methanone] | 65.8 | 
19 | COCC(=O)c1c(-c2ccc(C)cc2)[nH]c2ccc(C(=O)N3CC(N4CCN(c5ccccn5)CC4)C3)cc12 [Compound 27, 2-Methoxy-1-{5-[3-(4-pyridin-2-yl-piperazin-1-yl)-azetidine-1-carbonyl]-2-p-tolyl-1H-indol-3-yl}-ethanone] | 76.3 | 
20 | CC(C)Cn1c(-c2ccccc2)cc2cc(C(=O)N3CC(N4CCN(c5ccccn5)CC4)C3)ccc21 [Compound 13, (1-Isobutyl-2-phenyl-1H-indol-5-yl)-[3-(4-pyridin-2-yl-piperazin-1-yl)-azetidin-1-yl]-methanone] | 93.5 | 
21 | O=C(c1ccc2nc(C3CCCCC3)oc2c1)N1CC(N2CCN(c3ccccn3)CC2)C1 [Compound 2, (2-Cyclohexyl-benzooxazol-6-yl)-[3-(4-pyridin-2-yl-piperazin-1-yl)-azetidin-1-yl]-methanone] | 87.6 | 39.7
22 | COc1ccc(-c2nc3cccc(C(=O)N4CC(N5CCN(c6ccccn6)CC5)C4)c3o2)cc1 [Compound 7, [2-(4-Methoxy-phenyl)-benzooxazol-7-yl]-[3-(4-pyridin-2-yl-piperazin-1-yl)-azetidin-1-yl]-methanone] | 79.5 | 
23 | O=C(c1cccc2nc(-c3cccc(F)c3)oc12)N1CC(N2CCN(c3ccccn3)CC2)C1 [Compound 3, [2-(3-Fluoro-phenyl)-benzooxazol-7-yl]-[3-(4-pyridin-2-yl-piperazin-1-yl)-azetidin-1-yl]-methanone] | 82.9 | 45.7
24 | COc1ccccc1N1CCN(C2CN(C(=O)c3ccc4c(c3)cc(COc3ccccc3)n4CC(C)(C)C)C2)CC1 [Compound 22, [1-(2,2-Dimethyl-propyl)-2-phenoxymethyl-1H-indol-5-yl]-{3-[4-(2-methoxy-phenyl)-piperazin-1-yl]-azetidin-1-yl}-methanone] | 50.1 | 

From patent US8729064B2, “Heteroaromatic and aromatic piperazinyl azetidinyl amides as monoacylglycerol lipase inhibitors” (Janssen Pharmaceutica, NV, priority 2009, dated 2014)
